Key:
[1] = molecular target: T1, UT-B (Homo sapiens, UniProt Q13336); assay: RBC lysis assay, human RBCs loaded with acetamide; type: cell-based; conditions: 0.7 mM phloretin; control approximately 1.6 M
T1 construct: the indicator cells are red blood cells that endogenously express the UT-B urea transporter; endogenous in cells; host or cells: human red blood cells (whole venous blood, single donor)
T1 sequence (Q13336 1-389): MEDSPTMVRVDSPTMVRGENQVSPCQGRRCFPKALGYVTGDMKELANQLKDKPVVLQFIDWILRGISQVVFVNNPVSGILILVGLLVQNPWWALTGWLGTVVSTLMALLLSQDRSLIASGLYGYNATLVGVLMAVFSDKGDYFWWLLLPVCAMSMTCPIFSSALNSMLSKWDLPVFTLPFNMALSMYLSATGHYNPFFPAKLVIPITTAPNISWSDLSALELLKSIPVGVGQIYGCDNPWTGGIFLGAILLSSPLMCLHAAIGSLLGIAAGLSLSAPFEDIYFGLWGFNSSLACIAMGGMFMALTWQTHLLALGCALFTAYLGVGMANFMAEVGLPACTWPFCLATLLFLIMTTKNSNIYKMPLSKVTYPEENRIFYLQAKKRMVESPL

[2] = tested on: urea transporter (UT); conditions: previously available UT inhibitors; cited from earlier work
[3] = tested on: RBCs from wild-type mice; assay: Osmotic water permeability by stopped-flow light scattering, RBCs from wild-type mice; type: cell-based, mouse
Experimental: RBC urea and water permeabilities were assayed by stopped-flow light scattering using a Hi-Tech Sf-51 instrument (Wiltshire, UK). For measurement of urea permeability, dilutions of whole blood (human or mouse; see Example 1) in PBS (hematocrit: approximately 0.5%) were incubated with test compounds for 5 min and then subjected to a 250-mM inwardly directed gradient of urea. After an initial osmotic shrinking phase, the kinetics of increasing cell volume caused by urea influx were measured as the time-course of 90° scattered light intensity at 530 nm, with increasing cell volume resulting in reduced scattered light intensity. As a positive control, 0.7 mM phloretin was added to the RBC suspension prior to stopped-flow experiments. Measurements of water permeability were carried out similarly, with sucrose (cell-impermeant) used instead of urea to establish a 250-mM osmotic gradient. As a positive control, HgCl2 (0.3 mM) was added to the RBC suspension prior to stopped-flow measurements. Osmotic water permeability coefficients (Pf) were computed from light scattering data as described (van Hoek et al., J. Biol. Chem. 267:18267-69 (1992)).
This example describes chemical knock-out of UT-B by UT-B inhibitors in RBCs and the effect on UT-B-facilitated water transport. […] Osmotic water permeability was measured by stopped-flow light scattering in RBCs from wild-type and AQP1-null mice as shown in FIG. 8A. […] AQP1-null RBCs had greater than 5-fold reduced Pf compared to wild-type RBCs.

[4] = molecular target: T2, rat UT-A1 (Rattus norvegicus, UniProt Q62668); assay: UT-A1-mediated urea flux across stably transfected MDCK cell layers; type: cell-based; conditions: 10 μM forskolin; 0.7 mM phloretin
T2 construct: expressed in transfected cells
T2 sequence (Q62668 1-929): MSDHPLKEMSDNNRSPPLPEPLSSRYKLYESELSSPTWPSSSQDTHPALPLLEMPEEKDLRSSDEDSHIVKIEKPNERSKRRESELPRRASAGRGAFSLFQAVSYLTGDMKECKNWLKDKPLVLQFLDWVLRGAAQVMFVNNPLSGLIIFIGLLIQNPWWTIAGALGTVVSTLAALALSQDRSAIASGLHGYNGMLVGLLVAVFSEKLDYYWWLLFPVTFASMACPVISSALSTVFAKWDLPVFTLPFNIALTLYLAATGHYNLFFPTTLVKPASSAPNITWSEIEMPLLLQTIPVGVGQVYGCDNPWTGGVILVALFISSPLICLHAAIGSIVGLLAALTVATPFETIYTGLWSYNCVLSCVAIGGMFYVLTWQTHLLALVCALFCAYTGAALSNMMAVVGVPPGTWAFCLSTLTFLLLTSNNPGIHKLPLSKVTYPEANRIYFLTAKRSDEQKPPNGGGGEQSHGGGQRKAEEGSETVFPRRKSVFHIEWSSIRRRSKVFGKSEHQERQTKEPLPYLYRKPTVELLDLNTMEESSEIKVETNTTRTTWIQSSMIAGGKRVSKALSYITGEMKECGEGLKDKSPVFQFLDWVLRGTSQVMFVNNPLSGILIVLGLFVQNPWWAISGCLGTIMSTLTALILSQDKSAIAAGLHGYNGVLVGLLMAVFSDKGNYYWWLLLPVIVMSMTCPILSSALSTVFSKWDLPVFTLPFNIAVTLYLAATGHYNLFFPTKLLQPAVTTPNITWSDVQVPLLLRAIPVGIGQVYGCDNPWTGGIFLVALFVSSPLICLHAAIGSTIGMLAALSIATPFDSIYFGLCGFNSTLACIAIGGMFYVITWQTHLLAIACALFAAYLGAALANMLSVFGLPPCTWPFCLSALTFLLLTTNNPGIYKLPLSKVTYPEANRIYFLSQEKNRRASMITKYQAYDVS
Experimental: Concentration-inhibition studies were performed to study the effect of the active mouse UT-B inhibitors on urea transport by UT-A. The amino acid sequences of UT-B and UT-A urea transporter isoforms share significant similarity. The cells used in these studies were MDCK cells that expressed rat UT-A1. MDCK-UT-A1-expressing cells were grown on collagen-coated porous filters until they were electrically tight, at which point 15 mM urea was introduced into buffer bathing the basolateral cell surface. […]
UT-A1-facilitated urea flux in the basolateral-to-apical direction across unstimulated and forskolin-stimulated MDCK-UT-A1 cell layers was measured in response to a 15-mM urea gradient. […] Five μL samples of apical fluid were collected at specified times during incubation at 37° C., and urea concentration was determined using a commercial kit based on chromogenic urea complexation at 520-nm wavelength (Quantichrom™ Urea Assay Kit, BioAssay Systems, Hayward, Calif.). […] Aforsk, and Aphlor were averaged absorbance values (at 520 nm) for cultures treated with forskolin and forskolin+phloretin, respectively, and Atest were values from cultures treated with forskolin+ test compound.

O=C(CCc1ccc(O)cc1)c1c(O)cc(O)cc1O [phloretin, reference compound]
acetamide concentration at fifty percent lysis [1]: approximately 1.1 M
concentration exhibiting activity as UT inhibitor [2]: > 0.5 mM
effect on water transport [3]: little effect
change in Pf ([3]; 0.7 mM): small but significant reduction
effect on UT-A1-facilitated urea transport [4]: inhibited
